Drawing on US10626126B2, “Compounds” (Pulmocide Limited, priority 2016, dated 2020), this text covers IC50, inhibition and CC50 for six compounds.

Holding throughout (assay type): cell-based
One series has as its system RSV A2 strain. Briefly: RSV A2 induced CPE in HEp2 cells. The settings on record: human respiratory syncytial virus; for IC50: HEp-2, 120 h, 5 days; for inhibition at 0.01 µg/mL: HEp-2, at 0.01 μg/mL. The procedure: (§1) HEp2 cells were seeded (10^3/well/50 μL) in 384-well plates (Catalogue number 353962, BD Falcon, Oxford, UK) in 5% FBS-DMEM (containing 2 mM L-glutamine and 1 mM sodium pyruvate) one day before infection. […] Simultaneously, test compounds (0.5 μL DMSO solution) were added to 100 μL of HEp2 cell culture with virus solution to provide a final DMSO solution of 0.5%. […] Sigma-Aldrich, Dorset, UK) was added to each well and the plate incubated for a further 6 hr (37° C./5% CO2). The fluorescence of each well [545 nm (excitation)/590 nm (emission)] was determined using a multi-scanner (Clariostar: BMG, Buckinghamshire, UK). The percentage inhibition for each well was calculated and the IC50, IC75 and IC90 values were calculated from the concentration-response curve generated for each test compound.

A further series has as its system RSV B Washington strain. Briefly: RSV B induced CPE in HEp2 cells. The settings on record: human respiratory syncytial virus; for IC50: HEp-2, 144 h, 6 days; for inhibition at 0.1 µg/mL: HEp-2, at 0.1 μg/mL; for inhibition at 1 µg/mL: HEp-2, at 1 μg/mL. The procedure: as §1
Series [1] can be described thus: Cell viability: resazurin assay. The settings on record: human, HEp2 cells. The procedure:
HEp2 cells were seeded in 384-well plates (10^3/well/50 μL; BD Falcon Ref 353962) in FBS DMEM (5%, containing 2 mM L-glutamine and 1 mM sodium pyruvate) one day before experimentation. Serum-free DMEM (50 μL) was added to test wells, while for control wells the media was removed and sterile water (100 μL) added. Test compounds (0.5 μL DMSO solution) were added to give a final DMSO concentration of 0.5%. HEp2 cells were incubated with each test compound for 5 days (37° C./5% CO2 in 2.5% FBS) and then resazurin stock solution (5 μL; 0.03%) was added to each well and the plate incubated for a further 6 hr (37° C./5% CO2). The fluorescence of each well at 545 nm (excitation) and 590 nm (emission) was determined using a multi-scanner (Clariostar: BMG Labtech). The percentage loss of cell viability was calculated for each well relative to vehicle (0.5% DMSO) treatment. Note that any apparent increase in cell viability associated with test compound treatment relative to vehicle is consequently tabulated as a negative percentage. Where appropriate, a CC50 value was calculated from the concentration-response curve generated from the concentration-response curve for each test compound.
For orientation: The colour change of resazurin is a common sign of viable cells or microbes.

Molecules are shown by their SMILES. Bounds are passed on as bounds.

Regarding `Cc1cnc(N2CC3(CCOCC3)C2)c(C(=O)Nc2ccc(C(=O)N3CCc4cc(C(=O)Nc5c(F)cccc5F)sc4-c4sccc43)c(F)c2)c1` [Example 18, N-(2,6-difluorophenyl)-4-(2-fluoro-4-(5-methyl-2-(7-oxa-2-azaspiro[3.5]nonan-2-yl)nicotinamido)benzoyl)-5,6 dihydro-4H-dithieno[3,2-b:2′,3′-d]azepine-8-carboxamide], in the series on RSV A2 strain, half-maximal inhibition (IC50) required 0.17 nM and the inhibition (usually the drop in the measured response relative to a control, in per cent) at 0.01 µg/mL amounted to 100%. For the same compound, in the series on RSV B Washington strain, half-maximal inhibition (IC50) required 14 nM and the inhibition at 0.1 µg/mL was 92%. The 50% cytotoxic concentration (CC50) – broadly, the concentration giving 50% cytotoxicity – at 5 days in series [1] was greater than 13400 nM.
For the compound `Cc1cnc(N2CC3(CCOCC3)C2)c(C(=O)Nc2ccc(C(=O)N3CCc4cc(C(=O)Nc5c(F)cccc5Cl)sc4-c4sccc43)c(F)c2)c1` [Example 19, N-(2-chloro-6-fluorophenyl)-4-(2-fluoro-4-(5-methyl-2-(7-oxa-2-azaspiro[3.5]nonan-2-yl)nicotinamido)benzoyl)-5,6-dihydro-4H-dithieno[3,2-b:2′,3′-d]azepine-8-carboxamide], in the series with RSV A2 strain, the IC50 – broadly, the concentration needed to halve the response being measured – came to 0.18 nM and the inhibition at 0.01 µg/mL amounted to 93%. For the same compound, in the series with RSV B Washington strain, the midpoint of inhibition, the IC50, lay at 29 nM and at 1 µg/mL the inhibition was 86%. Also, the CC50 at 5 days in series [1] was greater than 13200 nM.
Regarding `COc1cnc(N2CC3(CCOCC3)C2)c(C(=O)Nc2ccc(C(=O)N3CCc4cc(C(=O)Nc5c(F)cccc5F)sc4-c4sccc43)cc2)c1` [Example 20, N-(2,6-difluorophenyl)-4-(4-(5-methoxy-2-(7-oxa-2-azaspiro[3.5]nonan-2-yl)nicotinamido)benzoyl)-5,6-dihydro-4H-dithieno[3,2-b:2′,3′-d]azepine-8-carboxamide], in the series with RSV A2 strain, the IC50 worked out at 0.17 nM and the inhibition at 0.01 µg/mL turned out to be 100%. In the series with RSV B Washington strain, this compound displayed an IC50 of 18 nM and an inhibition at 0.1 µg/mL of 100%. For the same compound, in series [1], the CC50 at 5 days is greater than 13500 nM.
Take `Cc1ccc(C(=O)Nc2ccc(C(=O)N3CCc4cc(C(=O)Nc5c(F)cccc5F)sc4-c4sccc43)cc2)c(N2CC3(CCOCC3)C2)n1` [Example 21, N-(2,6-difluorophenyl)-4-(4-(6-methyl-2-(7-oxa-2-azaspiro [3.5]nonan-2-yl)nicotinamido)benzoyl)-5,6-dihydro-4H-dithieno[3,2-b:2′,3′-d]azepine-8-carboxamide]: in the series with RSV A2 strain, half-maximal inhibition (IC50) was put at 0.37 nM and 0.01 µg/mL produced 91% inhibition. Further, in the series with RSV B Washington strain, the IC50 amounted to 17 nM and the inhibition at 0.1 µg/mL is 91%. For the same compound, the CC50 at 5 days in series [1] is greater than 13800 nM.
In the series with RSV A2 strain, `COc1ccc(C(=O)Nc2ccc(C(=O)N3CCc4cc(C(=O)Nc5c(F)cccc5F)sc4-c4sccc43)cc2)c(N2CC3(CCOCC3)C2)n1` [Example 22, N-(2,6-difluorophenyl)-4-(4-(6-methoxy-2-(7-oxa-2-azaspiro[3.5]nonan-2-yl)nicotinamido)benzoyl)-5,6-dihydro-4H-dithieno[3,2-b:2′,3′-d]azepine-8-carboxamide] came in with an IC50 of 1.7 nM and an inhibition at 0.01 µg/mL of 94%. In the series on RSV B Washington strain, the IC50 was determined as 159 nM and the inhibition at 1 µg/mL came out at 94%. The compound further displayed a cytotoxic concentration (CC50) at 5 days in series [1] greater than 13500 nM.
In the series with RSV A2 strain, `Cc1cc(C(=O)Nc2ccc(C(=O)N3CCc4cc(C(=O)Nc5c(F)cccc5F)sc4-c4sccc43)c(F)c2)c(N2CC3(CCOCC3)C2)nc1C` [Example 23, N-(2,6-difluorophenyl)-4-(4-(5,6-dimethyl-2-(7-oxa-2-azaspiro[3.5]nonan-2-yl)nicotinamido)-2-fluorobenzoyl)-5,6-dihydro-4H-dithieno[3,2-b:2′,3′-d]azepine-8-carboxamide] yielded an IC50 of 0.67 nM and an inhibition at 0.01 µg/mL of 96%. In the series on RSV B Washington strain, this compound came in with a half-maximal inhibitory concentration (IC50) of 70 nM and an inhibition at 1 µg/mL of 96%. In series [1], the CC50 at 5 days was greater than 13200 nM.
